For data set [1], the target named is FGFR1 (h) (Homo sapiens, UniProt P11362). The data set is described as follows: FGFR1 (enzymatic assay), TR-FRET. Type of data set: biochemical. The conditions noted are these: FGFR 1 pIC50, 5 μM ATP, 60 min; pIC50 = -log IC50 (M); average if tested multiple times.
For data set [2], the target named is FGFR2 (h) (Homo sapiens, UniProt P21802). Briefly: FGFR2 (enzymatic assay), TR-FRET. Type of data set: biochemical. The settings on record: 60 min, pIC50 = -log IC50 (M), average if tested multiple times.
Sequence of FGFR2 (h) (P21802 22-821): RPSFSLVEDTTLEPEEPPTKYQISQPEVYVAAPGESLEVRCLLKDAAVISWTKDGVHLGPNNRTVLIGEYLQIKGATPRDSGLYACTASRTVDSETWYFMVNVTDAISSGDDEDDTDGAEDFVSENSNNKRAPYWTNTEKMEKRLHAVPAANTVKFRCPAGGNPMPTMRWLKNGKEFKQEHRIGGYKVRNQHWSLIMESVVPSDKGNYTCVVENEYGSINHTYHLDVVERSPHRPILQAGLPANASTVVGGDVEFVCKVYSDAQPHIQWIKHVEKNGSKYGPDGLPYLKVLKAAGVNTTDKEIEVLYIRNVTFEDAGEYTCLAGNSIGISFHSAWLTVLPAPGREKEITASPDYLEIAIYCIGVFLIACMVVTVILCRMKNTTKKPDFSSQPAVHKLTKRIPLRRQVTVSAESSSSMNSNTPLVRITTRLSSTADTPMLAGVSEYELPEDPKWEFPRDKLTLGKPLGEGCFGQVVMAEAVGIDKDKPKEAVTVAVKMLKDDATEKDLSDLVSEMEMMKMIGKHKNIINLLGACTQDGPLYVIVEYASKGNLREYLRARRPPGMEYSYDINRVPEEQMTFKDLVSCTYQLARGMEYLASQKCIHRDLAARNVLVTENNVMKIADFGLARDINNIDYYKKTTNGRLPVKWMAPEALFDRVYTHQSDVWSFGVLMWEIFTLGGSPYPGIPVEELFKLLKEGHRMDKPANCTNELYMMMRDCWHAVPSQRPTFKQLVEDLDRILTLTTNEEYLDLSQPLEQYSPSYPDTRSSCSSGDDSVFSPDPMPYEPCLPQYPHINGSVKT
Data set [3] concerns the target FGFR3 (h) (Homo sapiens, UniProt P22607). Briefly: FGFR3 (enzymatic assay), TR-FRET. The conditions noted are these: 60 min, pIC50 = -log IC50 (M), average if tested multiple times. It counts as biochemical.
The target of data set [4] is FGFR4 (h) (Homo sapiens, UniProt P22455). Briefly: FGFR4 (enzymatic assay), TR-FRET. Type of data set: biochemical. The conditions noted are these: FGFR 4 pIC50, 5 μM ATP, 60 min; pIC50 = -log IC50 (M); average if tested multiple times.
Data set [5] addresses KDR (h) (Homo sapiens, UniProt P35968). The data set is described as follows: KDR (VEGFR2) (enzymatic assay), TR-FRET. It counts as biochemical. The conditions noted are these: 120 min, pIC50 = -log IC50 (M), average if tested multiple times. How it is done:
KDR (VEGFR2) (Enzymatic Assay)
In a final reaction volume of 30 μL, KDR (h) (150 ng/ml) was incubated with 50 mM HEPES pH 7.5, 6 mM MnCl2, 1 mM DTT, 0.1 mM Na3VO4, 0.01% Triton-X-100, 500 nM Btn-Flt3 and 3 μM ATP in the presence of compound (1% DMSO final). After incubation for 120 minutes at room temperature the reaction was stopped with 2.27 nM EU-anti P-Tyr, 7 mM EDTA, 31.25 nM SA-XL-665 and 0.02% BSA which was present for 60 minutes at room temperature. Time-Resolved Fluorescence Resonance Energy Transfer (TR-FRET) signal (ex340 nm. Em 620 nm, em 655 nm) was measured afterwards and results are expressed in RFU (Relative Fluorescence Units). In this assay, the inhibitory effect of different compound concentrations (range 10 μM to 0.1 nM) was determined and used to calculate an IC50 (M) and pIC50 (−log IC50) value.
Background: TR-FRET usually uses a lanthanide donor and a delayed reading to cut background.

In data set [6] the target is T1, Ba/F3-FGFR1-transfected cells (Homo sapiens, UniProt P11362, cells depend on it, form not given).
T1 construct: other: minus IL3; 24 hours, Alamar Blue
T1 sequence (P11362 whole entry, change not shown): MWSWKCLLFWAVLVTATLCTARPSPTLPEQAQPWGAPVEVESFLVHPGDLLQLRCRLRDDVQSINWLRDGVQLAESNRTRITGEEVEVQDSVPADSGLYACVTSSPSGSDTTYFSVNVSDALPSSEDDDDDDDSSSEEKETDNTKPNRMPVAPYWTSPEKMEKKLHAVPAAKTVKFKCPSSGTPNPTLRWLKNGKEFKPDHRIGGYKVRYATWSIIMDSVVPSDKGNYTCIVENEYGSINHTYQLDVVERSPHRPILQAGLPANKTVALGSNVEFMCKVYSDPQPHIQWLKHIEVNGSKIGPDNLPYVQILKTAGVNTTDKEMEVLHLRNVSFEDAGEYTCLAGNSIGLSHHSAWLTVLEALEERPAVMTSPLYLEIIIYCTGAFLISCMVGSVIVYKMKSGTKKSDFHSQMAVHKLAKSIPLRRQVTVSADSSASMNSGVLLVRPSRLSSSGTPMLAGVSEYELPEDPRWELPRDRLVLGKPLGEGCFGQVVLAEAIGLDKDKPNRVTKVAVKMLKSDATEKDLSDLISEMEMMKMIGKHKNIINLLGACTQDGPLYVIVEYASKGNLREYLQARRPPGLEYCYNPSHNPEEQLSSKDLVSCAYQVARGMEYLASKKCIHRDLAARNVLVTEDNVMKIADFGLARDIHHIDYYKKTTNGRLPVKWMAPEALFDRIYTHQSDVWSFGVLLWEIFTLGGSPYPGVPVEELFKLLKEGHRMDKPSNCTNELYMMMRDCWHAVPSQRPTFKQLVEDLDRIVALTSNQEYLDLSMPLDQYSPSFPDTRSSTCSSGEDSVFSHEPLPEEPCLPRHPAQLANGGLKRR
The data set is described as follows: Ba/F3-FGFR1 (minus IL3 or plus IL3) cellular proliferation assay, Alamar Blue. It counts as cell-based. The conditions noted are these: minus IL3, 24 hours. How it is done: Ba/F3-FGFR1 (Minus IL3 or Plus IL3) (Cellular Proliferation Assay)
(§1) In a 384 well plate, 100 nl of compound dilution in DMSO was sprayed before adding 50 μl cell culture medium (phenol red free RPMI-1640, 10% FBS, 2 mM L-Glutamine and 50 μg/ml Gentamycin) containing 20000 cells per well of Ba/F3-FGFR1-transfected cells. Cells were put in an incubator at 37° C. and 5% CO2. After 24 hours, 10 μl of Alamar Blue solution (0.5 mM K3Fe(CN)6, 0.5 mM K4Fe(CN)6, 0.15 mM Resazurin and 100 mM Phosphate Buffer) was added to the wells, incubated for 4 hours at 37° C. and 5% CO2 before RFU's (Relative Fluorescence Units) (ex. 540 nm., em. 590 nm.) were measured in a fluorescence plate reader.
(§2) In this assay, the inhibitory effect of different compound concentrations (range 10 μM to 0.1 nM) was determined and used to calculate an IC50 (M) and pIC50 (−log IC50) value. As a counterscreen the same experiment was performed in the presence of 10 ng/ml murine IL3.
A general note: The colour change of resazurin is a common sign of viable cells or microbes.

Data set [7] deals with T2, Ba/F3-FGFR3-transfected cells (Homo sapiens, UniProt P22607, cells depend on it, form not given).
T2 construct: BAF3-FGFR3 (MIN IL3 Alamar Blue- pIC50); other: minus IL3; 24 hours, Alamar Blue
Briefly: Ba/F3-FGFR3 (minus IL3 or plus IL3) cellular proliferation assay, Alamar Blue. It counts as cell-based. The settings on record: minus IL3; 24 hours, Alamar Blue. The protocol:
(§3) Ba/F3-FGFR3 (Minus IL3 or Plus IL3) (Cellular Proliferation Assay)
as §1, with “Ba/F3-FGFR3-transfected” for “Ba/F3-FGFR1-transfected”
as §2

The test system of data set [8] is Ba/F3-FGFR3-transfected cells. The description is as above. Type of data set: cell-based. The settings on record: plus IL3 (10 ng/ml murine IL3, counterscreen); 24 hours, Alamar Blue; read-out: BAF3-FGFR3 (PLUS IL3 Alamar Blue pIC50) (converted). How it is done: as §3
as §1, with “Ba/F3-FGFR3-transfected” for “Ba/F3-FGFR1-transfected”
as §2
Background: The purpose of a counterscreen is to sort out artefacts and off-target activity.

Data set [9] deals with T3, Ba/F3-KDR-transfected cells (Homo sapiens, UniProt P35968, cells depend on it, form not given).
T3 construct: BAF3-KDR (MIN IL3 Alamar Blue pIC50); other: minus IL3; 24 hours, Alamar Blue
T3 sequence (P35968 whole entry, change not shown): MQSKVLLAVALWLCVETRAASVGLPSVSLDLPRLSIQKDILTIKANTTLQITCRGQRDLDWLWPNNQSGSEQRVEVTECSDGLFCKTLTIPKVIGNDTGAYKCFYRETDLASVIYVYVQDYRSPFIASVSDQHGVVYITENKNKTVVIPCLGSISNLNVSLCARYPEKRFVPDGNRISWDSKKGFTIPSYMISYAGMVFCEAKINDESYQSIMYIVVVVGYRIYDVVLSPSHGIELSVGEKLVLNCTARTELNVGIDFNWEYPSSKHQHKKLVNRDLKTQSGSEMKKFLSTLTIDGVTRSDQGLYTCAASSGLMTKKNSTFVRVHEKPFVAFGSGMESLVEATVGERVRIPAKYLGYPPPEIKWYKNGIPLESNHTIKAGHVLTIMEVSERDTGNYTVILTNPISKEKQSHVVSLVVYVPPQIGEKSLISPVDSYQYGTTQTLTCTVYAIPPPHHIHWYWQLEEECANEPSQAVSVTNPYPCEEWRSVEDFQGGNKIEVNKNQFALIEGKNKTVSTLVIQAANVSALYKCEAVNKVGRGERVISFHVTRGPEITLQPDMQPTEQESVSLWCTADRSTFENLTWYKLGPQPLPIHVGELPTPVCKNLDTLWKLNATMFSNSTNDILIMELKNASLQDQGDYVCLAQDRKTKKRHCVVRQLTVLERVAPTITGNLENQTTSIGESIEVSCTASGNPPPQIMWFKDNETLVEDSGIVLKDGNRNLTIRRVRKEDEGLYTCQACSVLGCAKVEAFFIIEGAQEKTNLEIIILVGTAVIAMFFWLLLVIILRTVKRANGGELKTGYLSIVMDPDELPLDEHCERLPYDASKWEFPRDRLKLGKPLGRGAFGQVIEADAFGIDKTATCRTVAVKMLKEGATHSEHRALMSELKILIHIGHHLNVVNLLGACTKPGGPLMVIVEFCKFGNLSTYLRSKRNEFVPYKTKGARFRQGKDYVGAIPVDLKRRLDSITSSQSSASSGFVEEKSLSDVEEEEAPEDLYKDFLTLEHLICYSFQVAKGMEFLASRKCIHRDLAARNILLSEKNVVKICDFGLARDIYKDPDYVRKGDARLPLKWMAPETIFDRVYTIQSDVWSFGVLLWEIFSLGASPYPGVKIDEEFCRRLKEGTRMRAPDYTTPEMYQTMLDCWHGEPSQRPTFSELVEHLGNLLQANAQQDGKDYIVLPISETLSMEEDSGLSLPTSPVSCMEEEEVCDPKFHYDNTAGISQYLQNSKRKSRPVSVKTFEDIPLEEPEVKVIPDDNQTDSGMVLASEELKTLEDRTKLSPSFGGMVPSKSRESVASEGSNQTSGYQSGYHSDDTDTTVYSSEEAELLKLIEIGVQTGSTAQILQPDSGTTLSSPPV
Briefly: Ba/F3-KDR (minus IL3 or plus IL3) cellular proliferation assay, Alamar Blue. It counts as cell-based. The settings on record: minus IL3; 24 hours, Alamar Blue. How it is done: (§4) Ba/F3-KDR (Minus IL3 or Plus IL3) (Cellular Proliferation Assay)
as §1, with “Ba/F3-KDR-transfected” for “Ba/F3-FGFR1-transfected”
as §2

The subject of data set [10] is Ba/F3-KDR-transfected cells. The description is as above. Type of data set: cell-based. The settings on record: plus IL3 (10 ng/ml murine IL3, counterscreen); 24 hours, Alamar Blue; read-out: BAF3-KDR (PLUS IL3 Alamar Blue pIC50) (converted). How it is done: as §4
as §1, with “Ba/F3-KDR-transfected” for “Ba/F3-FGFR1-transfected”
as §2

The target of data set [11] is Ba/F3-FGFR4-transfected cells (Homo sapiens, UniProt P22455). The data set is described as follows: Ba/F3-FGFR4 cellular proliferation assay, Alamar Blue. It counts as cell-based. The settings on record: 24 hours. The protocol:
Ba/F3-FGFR4 (Cellular Proliferation Assay)
as §1, with “Ba/F3-FGFR4-transfected” for “Ba/F3-FGFR1-transfected”
In this assay, the inhibitory effect of different compound concentrations (range 10 μM to 0.1 nM) was determined and used to calculate an IC50 (M) and pIC50 (−log IC50) value.

Setting [12] is: 0.4 μM ATP, read-out: FGFR 2 pIC50 (converted).
The mark [13] stands for this setting: 25 μM ATP, read-out: hFGFR 3 pIC50 (converted).
The mark [14] stands for this setting: 3 μM ATP, read-out: VEGFR KDR pIC50 (converted).

The structures appear in SMILES notation. Where a name gives a salt, the structure may show the parent alone. Read-outs that look alike come from different tables or passages of the source.

Sequence of KDR (h) (P35968 20-1356): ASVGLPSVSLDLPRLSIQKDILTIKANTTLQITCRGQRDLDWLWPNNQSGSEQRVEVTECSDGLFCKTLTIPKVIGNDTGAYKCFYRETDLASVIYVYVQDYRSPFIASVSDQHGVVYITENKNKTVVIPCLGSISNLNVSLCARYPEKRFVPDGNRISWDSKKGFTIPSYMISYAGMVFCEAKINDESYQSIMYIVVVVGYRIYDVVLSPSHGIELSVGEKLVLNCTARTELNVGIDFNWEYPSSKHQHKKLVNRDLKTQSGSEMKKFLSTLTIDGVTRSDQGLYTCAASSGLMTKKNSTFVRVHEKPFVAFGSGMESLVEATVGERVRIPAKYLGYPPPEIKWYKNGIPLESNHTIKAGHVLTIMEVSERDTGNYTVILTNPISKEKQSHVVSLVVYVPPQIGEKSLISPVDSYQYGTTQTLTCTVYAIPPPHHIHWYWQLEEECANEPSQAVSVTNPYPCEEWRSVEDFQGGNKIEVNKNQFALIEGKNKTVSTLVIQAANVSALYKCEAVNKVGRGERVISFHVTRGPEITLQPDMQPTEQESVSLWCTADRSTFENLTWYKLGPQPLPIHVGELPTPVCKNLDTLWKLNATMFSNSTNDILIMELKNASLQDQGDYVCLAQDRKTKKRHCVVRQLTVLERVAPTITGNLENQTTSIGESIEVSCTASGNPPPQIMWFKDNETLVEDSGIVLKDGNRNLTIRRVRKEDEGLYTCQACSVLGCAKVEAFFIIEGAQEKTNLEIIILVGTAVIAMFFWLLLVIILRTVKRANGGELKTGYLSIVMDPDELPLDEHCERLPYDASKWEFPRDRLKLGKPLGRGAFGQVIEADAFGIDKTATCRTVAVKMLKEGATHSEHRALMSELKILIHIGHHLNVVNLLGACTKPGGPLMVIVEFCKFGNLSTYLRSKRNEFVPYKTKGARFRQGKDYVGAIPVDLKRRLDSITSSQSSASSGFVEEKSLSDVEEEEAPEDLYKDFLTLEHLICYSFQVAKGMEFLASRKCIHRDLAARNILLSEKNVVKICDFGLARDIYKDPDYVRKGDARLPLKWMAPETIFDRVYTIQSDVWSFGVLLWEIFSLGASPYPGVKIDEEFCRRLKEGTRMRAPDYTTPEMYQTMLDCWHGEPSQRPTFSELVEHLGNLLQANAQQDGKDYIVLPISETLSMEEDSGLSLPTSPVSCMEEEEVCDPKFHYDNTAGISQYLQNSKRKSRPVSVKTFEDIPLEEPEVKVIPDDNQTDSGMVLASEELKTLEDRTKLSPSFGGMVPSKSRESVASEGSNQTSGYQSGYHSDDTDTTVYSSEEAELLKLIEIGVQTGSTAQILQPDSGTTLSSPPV
Sequence of FGFR3 (h) (P22607 23-806): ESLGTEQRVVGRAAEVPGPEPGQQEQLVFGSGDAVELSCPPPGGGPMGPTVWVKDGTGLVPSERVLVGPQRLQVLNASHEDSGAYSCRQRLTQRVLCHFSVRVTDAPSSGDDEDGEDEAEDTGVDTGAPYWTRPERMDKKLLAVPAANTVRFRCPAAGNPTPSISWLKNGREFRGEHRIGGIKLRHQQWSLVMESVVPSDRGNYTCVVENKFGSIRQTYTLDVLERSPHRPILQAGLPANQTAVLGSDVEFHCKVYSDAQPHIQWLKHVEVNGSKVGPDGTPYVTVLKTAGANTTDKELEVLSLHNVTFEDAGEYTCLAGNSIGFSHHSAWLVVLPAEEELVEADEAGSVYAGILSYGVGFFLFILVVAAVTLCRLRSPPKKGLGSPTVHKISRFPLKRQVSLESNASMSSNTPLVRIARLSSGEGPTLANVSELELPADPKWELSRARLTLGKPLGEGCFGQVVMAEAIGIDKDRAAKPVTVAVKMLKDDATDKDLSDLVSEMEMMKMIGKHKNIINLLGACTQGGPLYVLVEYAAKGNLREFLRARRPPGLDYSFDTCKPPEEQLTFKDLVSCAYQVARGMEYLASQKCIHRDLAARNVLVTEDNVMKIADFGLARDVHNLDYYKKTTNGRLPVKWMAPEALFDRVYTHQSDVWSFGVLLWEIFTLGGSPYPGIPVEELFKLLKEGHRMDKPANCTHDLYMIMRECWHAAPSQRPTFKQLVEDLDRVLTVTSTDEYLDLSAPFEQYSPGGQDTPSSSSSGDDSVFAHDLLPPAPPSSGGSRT

Usually melting point stands for the temperature of the solid-liquid transition. `CNCCN(c1ccc2ncc(-c3cnn(C)c3)cc2c1)c1c(F)c(OC)cc(OC)c1F` (as salt: HCl) [Compound 43]: the melting point worked out at 180 °C.

Consider `COc1cc(OC)cc(N(Cc2ncc[nH]2)c2ccc3ncc(C4CCNCC4)cc3c2)c1` [Compound 48a], for which the IC50 in data set [1] was 2.95e-07 M; in data set [2] (setting [12]), 1.7e-07 M; in [3] (setting [13]) it was 4.17e-07 M; in data set [4], 8.32e-07 M; in [5] (setting [14]) it was greater than 1e-06 M; in data set [8], greater than 10000 nM. For the same compound, in [10], the IC50 is greater than 10000 nM. Moreover, the “BAF3-FGFR1 (MIN IL3 pIC50)” value in data set [6] is less than 5. For the same compound, the “BAF3-FGFR3 (MIN IL3 Alamar Blue- pIC50)” value in data set [7] is reported as less than 5. In data set [9], the “BAF3-KDR (MIN IL3 Alamar Blue pIC50)” value is given as less than 5. For the same compound, the “BAF3-FGFR 4 (pIC50)” value in [11] is on record as less than 5.

Consider `COc1cc(OC)cc(C(CCNC(C)C)c2ccc3ncc(-c4cnn(C)c4)cc3c2)c1` (centres unmarked) (as salt: HCl) [Compound 41], for which the melting point is greater than 300 °C.

For the compound `COc1cc(OC)cc(N(CCO)c2ccc3ncc(N4CCOCC4)cc3c2)c1` [Compound 54], the IC50 is 3.8e-07 M in [1]; 1.82e-07 M in data set [2] (setting [12]); 1.45e-07 M in data set [3] (setting [13]); greater than 1e-06 M in data set [4]; greater than 1e-06 M in [5] (setting [14]); greater than 10000 nM in data set [8]. Further, the IC50 in [10] is greater than 10000 nM. The “BAF3-FGFR1 (MIN IL3 pIC50)” value in data set [6] is listed as less than 5. The “BAF3-FGFR3 (MIN IL3 Alamar Blue- pIC50)” value in data set [7] is listed as 5.16. Also, the “BAF3-KDR (MIN IL3 Alamar Blue pIC50)” value in data set [9] is listed as less than 5. Also, the “BAF3-FGFR 4 (pIC50)” value in data set [11] is reported as less than 5.

Turning to `COc1cc(OC)cc(C(CC(N)=O)c2ccc3ncc(-c4cnn(C)c4)cc3c2)c1` (centres unmarked) [Compound 40], the IC50 was 1.86e-07 M in data set [1]; 3.02e-07 M in [2] (setting [12]); 2.19e-07 M in data set [3] (setting [13]); greater than 1e-06 M in data set [5] (setting [14]); greater than 10000 nM in data set [8]; greater than 10000 nM in data set [10]. Also, the “BAF3-FGFR1 (MIN IL3 pIC50)” value in data set [6] is listed as less than 5. For the same compound, in data set [7], the “BAF3-FGFR3 (MIN IL3 Alamar Blue- pIC50)” value is given as 5.08. In addition, the “BAF3-KDR (MIN IL3 Alamar Blue pIC50)” value in data set [9] is given as less than 5. In addition, the “BAF3-FGFR 4 (pIC50)” value in [11] was less than 5.

With `COc1cc(OC)cc(N(Cc2ncc[nH]2)c2ccc3ncc(C4=CCNCC4)cc3c2)c1` [Compound 46], the IC50 in data set [1] was 6.31e-09 M; in data set [2] (FGFR 2 pIC50, 0.4 μM ATP), 3.63e-09 M; in [3] (hFGFR 3 pIC50, 25 μM ATP) it was 2.45e-09 M; in [4] it was 1.7e-08 M; in data set [5] (VEGFR KDR pIC50, 3 μM ATP) it was 1.02e-06 M. Moreover, the “BAF3-FGFR1 (MIN IL3 pIC50)” value in data set [6] is recorded as 5.89. For the same compound, the “BAF3-FGFR3 (MIN IL3 Alamar Blue- pIC50)” value in data set [7] is listed as 5.68. For the same compound, the “BAF3-KDR (MIN IL3 Alamar Blue pIC50)” value in data set [9] is listed as less than 5. Moreover, the “BAF3-FGFR 4 (pIC50)” value in [11] turned out to be 5.28.

`COc1cc(OC)cc(/C(=C/C#N)c2ccc3ncc(-c4cnn(C)c4)cc3c2)c1` [Compound 29] gave a melting point of 86 °C. Besides, the IC50 in [2] (setting [12]) is roughly 6.76e-08 M. The IC50 in [3] (setting [13]) was 4.57e-08 M. Moreover, the IC50 in [5] (setting [14]) was 5.62e-07 M. Further, the “BAF3-FGFR1 (MIN IL3 pIC50)” value in data set [6] is on record as 5.45. In addition, the “BAF3-FGFR3 (MIN IL3 Alamar Blue- pIC50)” value in data set [7] is recorded as 5.29. For the same compound, the “BAF3-KDR (MIN IL3 Alamar Blue pIC50)” value in data set [9] came to 5.15. In addition, the “BAF3-FGFR 4 (pIC50)” value in data set [11] is less than 5.

With `C#CCN(c1ccc2ncc(-c3cnn(C)c3)cc2c1)c1cc(OC)cc(OC)c1F`, the melting point was 120 °C.

`COc1cc(OC)cc(N(CCCN2CCCC2=O)c2ccc3ncc(-c4cnn(C)c4)cc3c2)c1` (as salt: HCl) (hydrate or solvate) [Compound 10] displayed a melting point of 142 °C.

Turning to `COc1cc(OC)cc(N(CCNC(C)C)c2ccc3ncc(-c4ccccc4)cc3c2)c1` [Compound 51], the IC50 in data set [1] is 2.75e-09 M; in [2] (setting [12]), 3.98e-09 M; in data set [3] (setting [13]), 7.94e-09 M; in data set [4], 1.38e-08 M; in data set [5] (setting [14]), 1.7e-07 M; in [8], greater than 10000 nM. Further, the IC50 in [10] is roughly 6030 nM. For the same compound, in data set [6], the “BAF3-FGFR1 (MIN IL3 pIC50)” value amounted to 6.13. In data set [7], the “BAF3-FGFR3 (MIN IL3 Alamar Blue- pIC50)” value turned out to be 5.82. The “BAF3-KDR (MIN IL3 Alamar Blue pIC50)” value in data set [9] is 5.15. Further, the “BAF3-FGFR 4 (pIC50)” value in [11] was determined as 5.87.

Regarding `COc1cc(OC)cc(N(CCNC(C)C)c2ccc3ncc(-c4cnn(CCO)c4)cc3c2)c1` (as salt: HCl) (hydrate or solvate) [Compound 13], the melting point lay in the range of 86 to 115 °C.

Source of the values: patent US10039759B2, “Quinolines as FGFR kinase modulators” (priority 2011, dated 2018).
